Experimental data taken from paper PMC9923724, “Half sandwich-type osmium, ruthenium, iridium and rhodium complexes with bidentate glycosyl heterocyclic ligands induce cytostasis in platinum-resistant ovarian cancer cells and bacteriostasis in Gram-positive multiresistant bacteria” (Frontiers in Chemistry, 2023).

What was measured:
Type in all cases: cell-based
[1] = test system: cisplatin resistant A2780 cells; test: SRB assay (48 h) on cisplatin-resistant A2780 cells; settings: for IC50 / cisplatin resistant A2780 SRB Max. (maximal inhibition): cisplatin resistant A2780 cells, SRB, 48 h
Method: 6 × 10^3 cisplatin-resistant A2780 cells were plated to 96 well plates. Cells were treated with the compounds in the concentrations indicated for either 4 h for an MTT assay or for 48 h for an SRB assay. Data is represented as average ± SD, from three biological replicates; individual assays were performed in duplicates. Values were normalized for vehicle treated cells, absorbance for vehicle treated cells equals to 1. Each compound was assessed individually. Normality was assessed using the Shapiro-Wilk test. […] Statistical significance was assessed using One-way ANOVA test comparing all points to the smallest concentration. For better visibility the p values are presented in an excel sheet at https://figshare.com/s/2c942a812caea8869a67. Non-linear regression was performed on the results of the SRB assay datasets.
Cisplatin resistant cells underwent selection (1 µM cisplatin) once a week for 3 days before plating for any assay.
(§1) The assay was performed similar to ([Kovács et al., 2019]). Cells were seeded in 96 well plates the day before the assay. Cells were treated with the compounds for 48 h. Cells were fixed with 10% trichloroacetic acid (TCA). Fixed cells were washed in distilled water 3 times followed by staining with SRB (0.4 m/V% dissolved in 1% acetic acid) for 10 min. Stained cells were washed in 1% acetic acid 5 times; acetic acid was removed and cells were left to dry. Protein-bound SRB was released by adding 100 µl 10 mM Tris base. Plates were measured in a plate photometer (Thermo Scientific Multiscan GO spectrophotometer, Waltham, MA, United States) at 540 nm. On each plate wells were designed to contain vehicle-treated cells. In calculations the readings for these wells was considered as 1 and all readings were expressed relative to these values.
Statistical analysis was performed using 8.0.1 version of Graphpad Prism. Values were tested for normal distribution using the D’Agostino and Pearson normality test. When necessary, values were log normalized or were normalized using the Box-Cox normalization method ([Box and Cox, 1964]) as indicated in the figure captions.

[2] = test system: primary dermal fibroblasts; test: SRB assay (48 h) on primary fibroblasts; settings: primary human dermal fibroblasts
Method: 3 × 10^3 A2780 cells, 2 × 10^3 ID8 cells and 4 × 10^3 primary fibroblasts were plated to 96 well plates. Cells were treated with the compounds in the concentrations indicated for either 4 h for an MTT assay or for 48 h for an SRB assay. Data is represented as average ± SD, from three biological replicates; individual assays were performed in duplicates. Values were normalized for vehicle treated cells, absorbance for vehicle treated cells equals to 1. Statistical significance was assessed using two-way ANOVA test comparing the free ligand and each complex as a complex-ligand pair. Before the test normality was assessed using the D’Agostino-Pearson test. The ID8 SRB Ir-7+L-7 dataset had lognormal distribution. […] All other datasets had normal distribution. For better visibility the p values are presented in an excel sheet at https://figshare.com/s/2c942a812caea8869a67. Non-linear regression was performed on the A2780 SRB and the ID8 SRB datasets.
Human primary dermal fibroblasts were cultured in low glucose DMEM (1 g/L glucose) medium supplemented with 20% fetal calf serum, 2 mM glutamine, 1% penicillin-streptomycin.
as §1

[3] = test system: L428 Hodgkin lymphoma cells; test: Cell proliferation on L428 cells (counted in Burker chamber); settings: head says SRB, cells counted using a Burker chamber
Method: 3 × 10^3 Capan2 cells, 2 × 10^3 Saos cells and 8 × 10^3 L428 were plated to 96 well plates. Cells were treated with the compounds in the concentrations for 48 h. Then for Capan2 and Saos SRB assay was performed, L428 cells were counted using a Burker chamber. Data is represented as average ± SD, from three biological replicates; individual assays were performed in duplicates. Values were normalized for vehicle treated cells, absorbance for vehicle treated cells equals to 1. Normality was checked using the Shapiro-Wilk test. The Saos Os-7 dataset was normalized using the Box-Cox method, other datasets had normal distribution. Each complex was individually assessed for statistical significance using One-way ANOVA test followed by Dunnett’s post hoc test; all values were compared to the values of the lowest concentration. For better visibility the p values are presented in an excel sheet at https://figshare.com/s/2c942a812caea8869a67. Non-linear regression was performed on the Capan2 and Saos datasets.
Cells were seeded in 96 well plates the day before the assay. Cells were treated with the compounds for […]. Cells were counted using a Burker chamber. On each plate wells were designed to contain untreated cells. In calculations the readings for these wells was considered as 1 and all readings were expressed relative to these values.

[4] = test system: 4-hydroxynonenal (4HNE)-modified proteins in A2780 cells; test: Western blot for 4HNE-modified proteins in A2780 cells; settings: IC50 concentrations, 15 or 30 min, bands ∼70 kDa and ∼60 kDa
Method: FIGURE 9 (A) Vitamin E, a lipid soluble antioxidant blocks the cytostatic activity of the bioactive complexes. 1.5 × 10^3 A2780 cells were plated to 96 well plates. Cells were treated with the compounds in the concentrations indicated for 48 h followed by an SRB assay. Data is represented as average ± SD, from four biological replicates; individual assays were performed in duplicates. Values were normalized for vehicle treated cells, absorbance for vehicle treated cells equals to 1. Normality was checked using the D’Agostino-Pearson normality test. […] Statistical significance was assessed using two-way ANOVA test comparing all measurement points. * and *** represent statistical significance at p <0.05 and 0.001, respectively, between the lowest concentration and the higher concentrations among non-vitamin E-treated cells. ! and !!! represent statistical significance at p <0.05 and 0.001, respectively, between the lowest concentration and the higher concentrations among vitamin E-treated cells. #, ## and ### represent statistical significance at p <0.05, p <0.01 and 0.001, respectively, between the non-vitamin E-treated vs. vitamin E-treated cells. […] Cells were harvested and lysed. Cellular proteins were separated on a 10% SDS-PAGE gel and were blotted. […]
To complement the vitamin E experiments we assessed oxidative stress by detecting the formation of 4-hydroxynonenal (4HNE)-modified proteins, a hallmark of oxidative stress ([Ayala et al., 2014]; [Zhang and Forman, 2017]). […]
SDS-polyacrylamide gel electrophoresis and Western blot was performed as in ([Márton et al., 2018]) using an antibody against 4HNE (Abcam (ab46545) 1:1000) that was detected using a corresponding peroxidase-conjugated secondary antibody (1:10000, Cell Signaling Technology, Inc., Beverly, MA, United States). […] ECL and amido black pictures were captured using the ChemiDoc Touch Imaging System (Bio-Rad Laboratories, Inc., Hercules, California, United States) and the pictures were evaluated using the Image Lab software (Bio-Rad).

SMILES: Cc1ccc(C(C)C)cc1.F[P-](F)(F)(F)(F)F.O=C(OCC1OC(n2cc(-c3ccc4ccccc4n3)nn2)C(OC(=O)c2ccccc2)C(OC(=O)c2ccccc2)C1OC(=O)c1ccccc1)c1ccccc1.[Cl][Ru+] (mixture of isomers) [Ru-7]
- IC50 [1]: 1180 nM
- cisplatin resistant A2780 SRB Max. (maximal inhibition) [1]: >90%
- Fibroblast SRB Max. (maximal inhibition) [2]: 50.04%
- L428 maximal inhibition (cell count) [3]: 52.73%
- 4HNE formation (4HNE-modified proteins) [4]: gross induction of 4HNE formation

SMILES: Cc1c(C)c(C)[c-](C)c1C.F[P-](F)(F)(F)(F)F.O=C(OCC1OC(n2cc(-c3ccc4ccccc4n3)nn2)C(OC(=O)c2ccccc2)C(OC(=O)c2ccccc2)C1OC(=O)c1ccccc1)c1ccccc1.[Cl][Ir+2] (mixture of isomers) [Ir-7]
- IC50 [1]: 1540 nM
- cisplatin resistant A2780 SRB Max. (maximal inhibition) [1]: >90%
- Fibroblast SRB Max. (maximal inhibition) [2]: 42.83%
- L428 maximal inhibition (cell count) [3]: >90%
- 4HNE formation (4HNE-modified proteins) [4]: gross induction of 4HNE formation

SMILES: Cc1ccc(C(C)C)cc1.F[P-](F)(F)(F)(F)F.O=C(OCC1OC(n2cc(-c3ccc4ccccc4n3)nn2)C(OC(=O)c2ccccc2)C(OC(=O)c2ccccc2)C1OC(=O)c1ccccc1)c1ccccc1.[Cl][Os+] (mixture of isomers) [Os-7]
- fold change of IC50, cisplatin resistant vs cisplatin sensitive A2780 ([1]; SRB assays, resistant / sensitive A2780): technically unchanged
- IC50 [1]: 476 nM
- cisplatin resistant A2780 SRB Max. (maximal inhibition) [1]: >90%
- Fibroblast SRB Max. (maximal inhibition) [2]: 48.94%
- L428 maximal inhibition (cell count) [3]: >90%
- 4HNE formation (4HNE-modified proteins) [4]: gross induction of 4HNE formation
